Laboratory results from US10765625B2, “Knottin-drug conjugates and methods of using the same” (THE BOARD OF TRUSTEES OF THE LELAND STANFORD JUNIOR …, priority 2016, dated 2020).
Read-outs that look alike come from different tables or passages of the source.

Legend:
[1] = test system: U87MG cells; assay: Integrin-blocking competition: cell proliferation (CCK-8) after pre-treatment with EETI-2.5F (1); type: cell-based; settings: 1 μM 1, 3 h pre-treatment and co-treatment
Experimental: (§1) U87MG, and PANC-1 cells were grown in Dulbecco's Modified Eagle Medium (DMEM) with 10% fetal bovine serum (FBS) and 1% penicillin/streptomycin. MDA-MB-468 cells were grown in DMEM and Ham's F-12 medium (DMEM/F12) with 10% FBS and 1% penicillin/streptomycin. A2780 and BxPC3 cells were grown in Roswell Park Memorial Institute medium (RPMI) 1640+L-glutamine, with 10% FBS and 1% penicillin/streptomycin. D270 cells were grown in MEM (Richter's modification, no phenol red) with 10% FBS and 0.1% Gentamicin. Unless otherwise specified, cells were incubated at 37° C., 5% CO2. Flow cytometry was performed using an EMD Millpore Guava EasyCyte 8HT flow cytometer and the resulting data were evaluated using FlowJo software provided by TreeStar, Inc. Cell proliferation was measured using the Dojindo Cell Counting Kit-8 by replacing the media in each well with 100 μL of media containing 10% WST-8. After incubation for 1 h at 37° C., absorbance, A, at 450 nm was measured with a BioTek Synergy H4 microtiter plate reader. The background signal of CCK-8 alone was subtracted from all samples. Cell proliferation was then expressed as a percentage of absorbance relative to the control of untreated cells (Equation 2). Nonlinear regression analysis was performed using GraphPad Prism.
One possible explanation for the apparent hENT1-independence of 5d is that its route of internalization could be integrin-mediated. The role of integrin-binding in the biological potency and hENT1-independence of 5d was determined. A competition experiment was carried out in which U87MG cells were pre-treated with unconjugated EETI-2.5F (1) in order to block integrins on the cell surface. The role of integrin-binding was studied by measuring the proliferation of U87MG cells that had been pre-treated with EETI-2.5F (1) when exposed to increasing doses of 3 and KDCs 5a, 5c, and 5d. […] Media used to prepare varying concentrations of drug, protein, or protein-drug conjugate also contained 1 μM of 1. Prior to treatment, cells were incubated for 3 h at 37° C., 5% CO2 with fresh media containing 1 μM 1. After this pre-treatment, cells were incubated with varying concentrations of 5a, 5c, or 5d for 24 h and then media was replaced with fresh media and cells were incubated for an additional 48 h. Cell proliferation was measured using the Cell Counting Kit-8 by replacing the media in each well with 100 μL of media containing 10% WST-8. After incubation for 1 h at 37° C., absorbance at 450 nm was measured with a Synergy H4 microtiter plate reader. Cell proliferation was measured according to the method described in Section 1.3. Error bars represent the standard deviation of experiments performed in triplicate.

[2] = test system: U87MG cells; assay: Cell proliferation, CCK-8 colorimetric assay; type: cell-based
Experimental: as §1
Next, the potency of each KDC was tested in a cell-proliferation experiment. […] Cells were seeded in a 96-well plate at a density of 2,500 cells per well and grown overnight at 37° C., 5% CO2 in DMEM with 10% FBS and 1% penicillin/streptomycin. Cells were subsequently treated with 100 μL of fresh media, containing varying concentrations of drug, protein, or protein-drug conjugate and incubated for 4 d at 37° C., 5% CO2. Cell proliferation was measured according to the method described in Section 1.3. Error bars represent the standard deviation of experiments performed in triplicate. […] Given that the linker must be cleaved to release free Gemcitabine in order for the payload to become active, the low potency of 5b can be explained by the greater stability of the carbamate group as compared to the other linkers tested.

[3] = test system: U87MG cells; assay: Premature drug release study: cell proliferation (CCK-8) with hENT1 inhibitor 6 co-administered; type: cell-based; settings: for Effect of hENT1 inhibitor 6 on potency (ED50) (in words): U87MG cells, increasing concentrations of 6 up to 10 μM; for Fold Increase in ED50 in U87MG Cells: ED50 with 6 / ED50 without 6, minus 1
Experimental: as §1
The relative extent of premature drug-release in the cases of 5a, 5c, and 5d was next determined in order to identify the linker best-suited for delivering the drug payload intracellularly. An established technique for blocking the cellular uptake of Gemcitabine by using S (4-nitrobenzyl)-6-thioinosine (6) was employed, which is known to inhibit human equilibrative nucleoside transporters, such as hENT1. Because hENT1 is a critical regulator of the cellular internalization of Gemcitabine, it was reasoned that by inhibiting its activity with 6, the cytotoxic effect of any drug payload that was released in the extracellular environment could be diminished. It was anticipated that this would allow the distinction between KDCs that were potent due to the undesirable release of Gemcitabine outside of the cell from those that released Gemcitabine intracellularly (FIG. 6). The extent of premature drug release in the extracellular environment was studied by inhibiting activity of nucleoside transporters (such as hENT1) of U87MG cells through the use of the hENT1 inhibitor S-(4-nitrobenzyl)-6-thioinosine (6). […] In a similar fashion, it was expected that for KDCs which released a significant amount of the drug payload in the extracellular environment, an increase in the concentration of 6 should result in a concomitant increase in ED50 value.
Media used to prepare varying concentrations of drug, protein, or protein-drug conjugate also contained varying concentrations of the hENT1 inhibitor, 6. Additionally, prior to treatment, cell were incubated at 37° C., 5% CO2 with fresh media containing the varying concentrations of 6 for 2 h. Cell proliferation was measured using the Cell Counting Kit-8 by replacing the media in each well with 100 μL of media containing 10% WST-8. After incubation for 1 h at 37° C., absorbance at 450 nm was measured with a Synergy H4 microtiter plate reader. ED50 values were determined by nonlinear regression analysis. Example dose-response curves for 3 (FIG. 7) and 5d (FIG. 8) are provided. Cell proliferation was measured according to the method described in Section 1.3. Error bars represent the standard deviation of experiments performed in triplicate.
These values were normalized as Fold Increase in ED50 (defined in Equation 2) by dividing the ED50 of each drug when 6 was co-administered at concentration=C by the ED50 of that same drug when no 6 was added, then subtracting 1 (thus, a “0-fold increase” would mean no increase, while a “1-fold increase” would mean that the ED50 value had doubled). Fold Increase in ED50 for each drug at each concentration of 6 is provided in Table 5, and these values were used to generate FIG. 9.

[4] = test system: U87MG cells; assay: Competition binding assay with AF488-labeled EETI-2.5F (AF488-1), flow cytometry; settings: competition with 1 nM AF488-1, 4° C., 3 hours, read-out: IC50 (nM), binding affinity
Experimental: Once the knottin-drug conjugates 5a-d were prepared, their binding affinity to U87MG glioblastoma cells, which are known to have elevated expression of tumor-associated integrins, was tested. […] To measure the relative binding affinities of knottins 1 and 2 and KDCs 5a-d, competition binding assays were performed using AlexaFluor 488-conjugated EETI-2.5F (AF488-1) as previously described (J. W. Kim, et al., J. Am. Chem. Soc. 2015, 137, 6-9). Cells (5×10^4 per sample) were detached with 0.05% Trypsin-EDTA, washed with IBB (25 mM Tris pH 7.4, 150 mM NaCl, 2 mM CaCl2, 1 mM MgCl2, 1 mM MnCl2, and 0.1% bovine serum albumin), and incubated with 1 nM AF488-1 and varying concentrations of competitors in 800 μL of IBB at 4° C. for 3 hours. The cells were washed twice with 800 μL of PBSA (phosphate buffered saline containing 0.1% bovine serum albumin) and the fluorescence of the surface-bound AF488-1 was determined using flow cytometry. The fluorescence was normalized to that of cells treated with AF488-1 alone to obtain the fraction bound. Half-maximal inhibitory concentration (IC50) values were determined by nonlinear regression analysis. Error bars represent the standard deviation of experiments performed in triplicate.

[5] = test system: BxPC3 pancreatic cancer cells; assay: Cell proliferation, CCK-8 colorimetric assay; type: cell-based; settings: Homo sapiens, BXPC-3, 96 h, 4 d after treatment, read-out: ED50 (nM), cell growth inhibition
Experimental: as §1
(§2) Having identified KDC 5d as a potent inhibitor of U87MG cells with desirable payload-release properties, its efficacy against a variety of other cell lines in comparison with Gemcitabine (3) was next tested. Cells were seeded in a 96-well plate at a density of 2,500 cells per well and grown overnight at 37° C., 5% CO2 in the media described in Section 1.3. Cells were subsequently treated with 100 μL of fresh media, containing 50 nM of 3 or 5d. Cells were incubated at 37° C., 5% CO2 for 4 d. Cell proliferation was measured using the Cell Counting Kit-8 by replacing the media in each well with 100 μL of media containing 10% WST-8. After incubation for 1 h at 37° C., absorbance at 450 nm was measured with a Synergy H4 microtiter plate reader. Cell proliferation was measured according to the method described in Section 1.3. Error bars represent the standard deviation of experiments performed in triplicate.

[6] = test system: D270 glioblastoma cells; assay: Cell proliferation, CCK-8 colorimetric assay; type: cell-based; settings: 96 h, 4 d after treatment, read-out: ED50 (nM), cell growth inhibition
Experimental: as §1, §2

[7] = test system: PANC-1 pancreatic cancer cells; assay: Cell proliferation, CCK-8 colorimetric assay; type: cell-based; settings: Homo sapiens, 96 h, 4 d after treatment, read-out: ED50 (nM), cell growth inhibition
Experimental: as §1, §2

[8] = test system: A2780 ovarian cancer cells; assay: Cell proliferation, CCK-8 colorimetric assay; type: cell-based; settings: Homo sapiens, 96 h, 4 d after treatment, read-out: ED50 (nM), cell growth inhibition
Experimental: as §1, §2

[9] = test system: MDA-MB-468 breast cancer cells; assay: Cell proliferation, CCK-8 colorimetric assay; type: cell-based; settings: Homo sapiens, MDA-MB-468, 96 h, 4 d after treatment, read-out: ED50 (nM), cell growth inhibition
Experimental: as §1, §2

SMILES | Effect of integrin blocking by pre-treatment with 1 on potency (in words) [1] | Potency / growth inhibition in U87MG cells (in words) ([2]; U87MG cells, 4 d) | EC50 ([2]; U87MG cells, 4 d incubation, vs untreated control, read-out: ED50 (nM), potency) | Effect of hENT1 inhibitor 6 on potency (ED50) (in words) [3] | Fold Increase in ED50 in U87MG Cells ([3]; [6] = 0 nM) | Fold Increase in ED50 in U87MG Cells ([3]; [6] = 1 nM) | Fold Increase in ED50 in U87MG Cells ([3]; [6] = 10 nM) | Fold Increase in ED50 in U87MG Cells ([3]; [6] = 100 nM) | Fold Increase in ED50 in U87MG Cells ([3]; [6] = 1000 nM) | Fold Increase in ED50 in U87MG Cells ([3]; [6] = 10000 nM) | IC50 [4] | EC50 ([2]; Homo sapiens, U-87 MG, 96 h, U87MG cells, 4 d incubation, vs untreated control, read-out: ED50 (nM), potency) | EC50 ([2]; Homo sapiens, U-87 MG, 96 h, U87MG glioblastoma, 4 d after treatment, read-out: ED50 (nM), cell growth inhibition) | EC50 [5] | EC50 [6] | EC50 [7] | EC50 [8] | EC50 [9]
CC(C)C[C@@H]1NC(=O)[C@@H]2CSSC[C@@H](C(=O)NCC(=O)O)NC(=O)[C@H](Cc3ccccc3)NC(=O)CNC(=O)[C@H](CC(N)=O)NC(=O)[C@@H]3CCCN3C(=O)CNC(=O)[C@@H]3CSSC[C@H](NC(=O)[C@H]([C@@H](C)O)NC(=O)[C@H](CC(C)C)NC(=O)[C@@H]4CCCN4C(=O)[C@@H]4CCCN4C(=O)[C@H](CC(N)=O)NC(=O)[C@H](CC(=O)O)NC(=O)CNC(=O)[C@H](CCCNC(=N)N)NC(=O)[C@@H]4CCCN4C(=O)[C@H](CCCNC(=N)N)NC(=O)[C@@H]4CCCN4C(=O)[C@@H](NC(=O)CN)CSSC[C@H](NC(=O)CNC(=O)[C@H](C)NC1=O)C(=O)N[C@@H](C(C)C)C(=O)N3)C(=O)N[C@@H](CCCn1cc(CCC(=O)Nc3ccn([C@@H]4O[C@H](CO)[C@@H](O)C4(F)F)c(=O)n3)nn1)C(=O)N[C@@H](CCC(N)=O)C(=O)N[C@@H](CC(=O)O)C(=O)N[C@@H](CO)C(=O)N[C@@H](CC(=O)O)C(=O)N2 [5c] | did not diminish the potency | low-nanomolar ED50 values | 8.9 ± 1.2 nM | much less sensitive | 0 | 0.5 ± 0.2 | 1.0 ± 0.2 | 7.8 ± 4.8 | 18.0 ± 5.2 | 31.1 ± 5.1 | 2.8 ± 0.2 nM |  |  |  |  |  |  | 
Nc1ccn([C@@H]2O[C@H](CO)[C@@H](O)C2(F)F)c(=O)n1 [compound 3, Gemcitabine, reference compound] | no effect on potency |  |  | increased significantly | 0 | 0.2 ± 0.4 | 1.5 ± 0.1 | 15.8 ± 0.3 | 44.7 ± 0.3 | 128.6 ± 2.8 |  | 1.1 ± 1.4 nM | 1.7 ± 1.4 nM | 18.4 ± 1.3 nM | 1.5 ± 0.4 nM | 52.8 ± 4.9 nM | 0.5 ± 0.02 nM | 17.3 ± 6.8 nM
